Data from PubChem BioAssay (NCI).
Values joined by “and” are separate entries in the source; they are usually repeats but may differ in a detail not shown here. Equal entries are not always repeated.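 Grown in 96-well plates, cells were treated for 48 hours with each compound at five concentrations. Insufficient inhibition: endpoint recorded as highest concentration tested. The concentration for 50% growth inhibition is given as GI50. The concentration for full growth arrest is given as TGI.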

Key:
Assay in all cases: growth of human tumour cells (NCI), 48 h
T-47D breast = system: T-47D breast
SK-OV-3 ovarian = system: SK-OV-3 ovarian
A498 renal = system: A498 renal
NCI/ADR-RES ovarian = system: NCI/ADR-RES ovarian
A549 NSCLC = system: A549 NSCLC
HCT-116 colon = system: HCT-116 colon
OVCAR-4 ovarian = system: OVCAR-4 ovarian
SN12C renal = system: SN12C renal
RPMI-8226 leukemia = system: RPMI-8226 leukemia
LOX IMVI melanoma = system: LOX IMVI melanoma

Row | SMILES | TGI (T-47D breast) [µM] | TGI (SK-OV-3 ovarian) [µM] | TGI (A498 renal) [µM] | TGI (NCI/ADR-RES ovarian) | TGI (A549 NSCLC) | TGI (HCT-116 colon) | TGI (OVCAR-4 ovarian) [µM] | TGI (SN12C renal) | TGI (RPMI-8226 leukemia) | GI50 (SK-OV-3 ovarian) [µM] | GI50 (A498 renal) [µM] | GI50 (RPMI-8226 leukemia) [µM] | GI50 (NCI/ADR-RES ovarian) [µM] | GI50 (A549 NSCLC) [µM] | GI50 (LOX IMVI melanoma) [µM] | TGI (LOX IMVI melanoma) [µM] | GI50 (HCT-116 colon) [µM] | GI50 (OVCAR-4 ovarian) [µM] | GI50 (SN12C renal) [µM] | GI50 (T-47D breast) [µM]
1 | C[C@H](CS)C(=O)N1c2ccccc2C[C@H]1C(=O)O | > 100 | > 100 | > 100 | > 100 µM | > 100 µM | > 100 µM | > 100 | > 100 µM |  |  |  |  |  |  |  |  |  |  |  | 
2 | CC(=O)OC(C)(C)/C=C/C(=O)[C@](C)(O)[C@H]1[C@H](O)C[C@@]2(C)[C@@H]3CC=C4[C@@H](C=C(O)C(=O)C4(C)C)[C@]3(C)C(=O)C[C@]12C | 1.46 |  |  | 5.45 µM and 6.12 µM and 5.39 µM | 6.51 µM and 1.23 µM and 2.65 µM | 1.39 µM [middle of 4 runs] |  | 3.34 µM and 1.52 µM and 0.938 µM | 771 nM [middle of 4 runs] |  |  |  |  |  |  |  |  |  |  | 
3 | OCc1ccc(N2CCc3cc(F)ccc3C2)cc1Cl |  | 15.9 | 0.0756 | 33.7 µM | 14.5 µM | 11.2 µM | 0.354 | 23.2 µM | 22.2 µM | 3.85 | 0.0206 | 0.244 | 11.3 | 0.389 | 9.7 | 24.5 | < 0.0166 | 0.0277 | 10.9 | 
4 | CCCCCCCCCC(CCCC(O)CC(=O)O)OC1OC(COC2OC(C)C(OC(C)=O)C(O)C2O)C(O)C(O)C1OC1OC(CO)C(O)C(O)C1OC1OC(C)C(OC(=O)CC(C)C)C(O)C1O (stereo not drawn) | > 35 | > 35 |  | > 35 µM | > 35 µM | > 35 µM | > 35 | > 35 µM | > 35 µM | > 35 |  | > 35 | > 35 | > 35 | > 35 | > 35 | > 35 | > 35 | > 35 | > 35
5 | C/C(=N\n1c(O)c(C#N)cc(C#N)c1=O)c1ccncc1 | > 100 | > 100 |  | > 100 µM | > 100 µM | > 100 µM |  | > 100 µM | > 100 µM | > 100 |  | > 100 | > 100 | > 100 | > 100 | > 100 | > 100 |  | > 100 | > 100
6 | c1ccc(-c2n(Cc3ccc4ccccc4c3)cc[n+]2Cc2ccc3ccccc3c2)cc1 |  | 2.89 |  | 35.4 µM |  | 2.14 µM |  | 2.64 µM |  | 1.49 |  |  | 13.9 |  |  |  | 0.665 |  | 1.26 | 
7 | COc1cc(/C=C/C(=O)/C=C/c2cc3ccc(Cl)cc3n(Cc3ccccc3)c2=O)ccc1O | 11.5 | 57.1 |  | > 100 µM | 5.03 µM | 2.15 µM | 37.8 | 5.01 µM | 10.9 µM | 5.95 |  | 1.23 | 2.86 | 2.05 | 1.29 | 2.61 | 0.768 | 2.48 | 1.95 | 2.02
8 | O=S(=O)(c1ccccc1)N1CN2CN(C1)CN(S(=O)(=O)c1ccccc1)C2 |  | > 100 | > 100 | > 100 µM | > 100 µM | > 100 µM | > 100 | > 100 µM | > 100 µM |  |  |  |  |  |  | > 100 |  |  |  | 
9 | Cc1ccc(-c2nc(N3CCNCC3)c3oc(-c4ccccc4)nc3n2)cc1 | 3.83 | 29.5 | 28.8 |  | 3.13 µM | 3.29 µM | 4.06 | 3.3 µM | 4.77 µM | 15.7 | 14.5 | 2.16 |  | 1.66 | 1.88 | 3.43 | 1.85 | 1.89 | 1.8 | 1.81
10 | N#Cc1ccccc1C#C/C=C\C#CC#C/C=C\C#Cc1ccccc1C#N | 46.5 | > 100 |  | 68.2 µM | > 100 µM | 30.2 µM | > 100 |  | > 100 µM | 28.6 |  | 4.11 | 18.5 | 11 | 17.3 | 45 | 13.6 | 19.1 |  | 10.3
11 | CC[C@]1(O)CC2CN(CCc3c([nH]c4ccccc34)[C@@](C(=O)OC)(c3cc4c(cc3OC)N(C=O)[C@H]3[C@@](O)(C(=O)OC)[C@H](OC(C)=O)[C@]5(CC)C=CCN6CC[C@]43[C@@H]65)C2)C1 (stereo partly drawn) |  | 0.0185 |  | > 13.3 µM | > 50 µM | > 50 µM | > 50 | > 50 µM | 17.8 µM | < 0.005 | 0.0123 | < 0.005 | 0.698 | 0.0172 | 0.00808 | > 50 | < 0.005 | 0.00653 | < 0.005 | 
12 | Cc1ccc(/C=C/c2c(C(=O)/C=C/c3ccc(Cl)cc3)c(C)nc3ccccc23)cc1 |  | 15.7 | 3.28 | 4.45 µM | 6.85 µM | 2.02 µM | 17.9 |  | 5.95 µM | 3.74 | 1.77 | 2.13 | 1.99 | 2.45 | 1.53 | 2.87 | 0.526 | 3.97 |  | 
